System: human colon tumor xenograft model (HCT-8, thymidine kinase (TK)-/-)
Experiment: HCT-8 xenograft, NX1843 dose schedule study and combinations with 5-FU, NX211 and GW1843 (Table 27)
Type: in vivo, nude mice
Protocol: Female Nu/Nu mice (18-24 g, 10-14 weeks old) were obtained from Harlan Sprague Dawley, and housed in microisolator filtration racks and maintained with filtered acidified water and sterile lab chow ad libitum. […] Animals were allowed to acclimate to their new environment for 1 week prior to tumor cell implantation. Tumors were established by injecting harvested tumor cells in a single subcutaneous site on the flank of the mice in the axillary region. The tumors were grown until approximately 200+/−50 mm^3 in size. The animals were then sorted according to body weight, grouped four animals/cage, and tattooed on the tail for permanent identification. Groups consisting of 8 tumor-bearing mice each were administered weekly doses of experimental agents by IV bolus injection through the tail vein. Tumor volumes were determined with vernier caliper measurements taken at right angles using the formula, (L×W^2/2) and body weights, were collected twice weekly. Data was plotted as % change in body weight vs. time in days, and % tumor volume increase vs. days.
T=(mean) time in days for treated group to reach cutoff size (2 grams)
C=(mean) time in days for control group to reach cutoff size (2 grams)
WC is the mean tumor weight of control group at time x
Wt is mean tumor weight of treated group at time x
% Regression=100 (Wo−Wi)/Wo; where Wo is the mean tumor weight for treated group at the initiation of treatment and Wi=the mean tumor weight for that group at time some time x after treatment.
In addition to these dose groups the free drug was dosed at 100 mg/kg on days 1-5, and repeated for a second week.

O=c1[nH]cc(F)c(=O)[nH]1 [Lot 5-FU, 5-fluorourcil, reference compound]
% TGI (100 mg/kg, QD1, 8): 72% | Cures (100 mg/kg, QD1, 8): 0 | LCK (100 mg/kg, QD1, 8): 1.5 | % Regression day 22 (100 mg/kg, QD1, 8, day 22): 0% | log cell kill (LCK) (iv, NX1843 25 mg/kg d1,8, 15 mg/kg QD(1,3,5)×2 or 7.5 mg/kg QD(1-5)×2, GW1843 100 mg/kg d1-5 ×2, 5FU 100 mg/kg d1,8, NX211 6 mg/kg d1,8, combinations at same doses): 1.5
